Test results reported in patent publication US8722849B2, “Polypeptides” (Novo Nordisk A/S, priority 2011, dated 2014).
≈ marks a conversion by molar mass, not a printed value. Like-named read-outs stand apart in the source and are kept apart here. Starred links: 1 amine or outer side, 2 acyl side, 3 side chain; linkers in the order of their positions; H or OH if unused. Positions of bridges follow the written chain, without caps; N, C: chain ends. Residues, ends and D or L forms follow the SMILES beside them. *: point of attachment. C20 diacid = O=C(O)CCCCCCCCCCCCCCCCCCC(=O)*; γGlu = O=C(O)[C@H](CCC(=O)[*:2])N[*:1]

Assays:
[1] = Assay (IV) determination of solubility; type: physicochemical
How it was run: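 Eight 100 mM buffers (glycylglycine pH 3.0–5.0, bistrispropane pH 6.0–8.0) each received an equal volume of polypeptide dissolved in water at ~500 nmol/ml. Soluble polypeptide was measured by HPLC following 18 hours at room temperature and centrifugation.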

[2] = molecular target: T1, rat amylin 3(a) receptor (rat calcitonin(a) receptor + rat RAMP3) (Rattus norvegicus, UniProt P32214+Q9JJ73); test: Assay (II)b functional cAMP FlashPlate assay, rat amylin receptor; type: cell-based; conditions: Table 11
T1 construct: expressed in transfected cells; host or cells: BHK tk'ts 13
T1 sequence (P32214 25-479 isoform P32214-2 limits assumed): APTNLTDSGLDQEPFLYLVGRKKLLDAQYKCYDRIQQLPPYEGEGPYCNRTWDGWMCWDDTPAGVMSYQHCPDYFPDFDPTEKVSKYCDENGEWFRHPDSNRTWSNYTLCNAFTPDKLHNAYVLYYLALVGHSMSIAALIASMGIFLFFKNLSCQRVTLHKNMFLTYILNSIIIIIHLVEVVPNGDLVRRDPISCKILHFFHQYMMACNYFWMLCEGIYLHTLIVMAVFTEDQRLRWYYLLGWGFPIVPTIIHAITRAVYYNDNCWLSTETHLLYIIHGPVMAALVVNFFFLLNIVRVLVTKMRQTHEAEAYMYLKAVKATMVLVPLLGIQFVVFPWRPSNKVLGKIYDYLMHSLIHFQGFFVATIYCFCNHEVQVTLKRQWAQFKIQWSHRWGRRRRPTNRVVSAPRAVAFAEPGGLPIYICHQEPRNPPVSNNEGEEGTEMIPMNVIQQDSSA
T1 sequence (Q9JJ73 23-147 partner): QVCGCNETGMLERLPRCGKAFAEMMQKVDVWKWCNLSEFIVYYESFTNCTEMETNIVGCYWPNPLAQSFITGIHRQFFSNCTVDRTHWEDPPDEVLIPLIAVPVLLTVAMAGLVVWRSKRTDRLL
From the text: (§1) Assay (II)b—Rat Calcitonin and Rat Amylin Receptor Assays
(§2) Activation of calcitonin and amylin (coexpression of calcitonin receptor and receptor activity modifying proteins (RAMP)) receptors lead to increased intracellular concentrations of cAMP. In order to quantify the cAMP levels in transiently transfected cells the Adenylyl Cyclase Activation FlashPlate® Assay from […] was used. The basic principle of the FlashPlate® Assay is a competition between radioactive and non-radioactive cAMP generated by the cells for a fixed number of binding sites.
(§3) Construction of rat calcitonin(a)—and rat amylin 3(a)-receptor cells.
(§4) BHK tk'ts 13 cells were transiently transfected with either rat calcitonin (a) receptor or amylin 3 (a) receptor (rat calcitonin(a) receptor+ rat RAMP3) using FuGENE® 6 (ROCHE), according to the manufacturers recommendations.
(§5) 24 hours after transient transfection the cells (rat calcitonin(a)—or rat amylin 3(a)—receptor cells) were added (100.000 cells/well) to the 96 well FlashPlates® with samples or standard in FlashPlate stimulation buffer with IBMX and incubated for 30 min. Detection mix was created according to manufacturers protocol and scintillation measured after 3 h of incubation on TopCounter™ (Packard).

[3] = molecular target: T2, human calcitonin receptor (Homo sapiens, UniProt P30988); test: Assay (II)a functional CRE-luciferase assay, human calcitonin receptor; type: cell-based; conditions: Table 7; human calcitonin (CTa) receptor
T2 construct: expressed in transfected cells; host or cells: BHK570
T2 sequence (P30988 25-474): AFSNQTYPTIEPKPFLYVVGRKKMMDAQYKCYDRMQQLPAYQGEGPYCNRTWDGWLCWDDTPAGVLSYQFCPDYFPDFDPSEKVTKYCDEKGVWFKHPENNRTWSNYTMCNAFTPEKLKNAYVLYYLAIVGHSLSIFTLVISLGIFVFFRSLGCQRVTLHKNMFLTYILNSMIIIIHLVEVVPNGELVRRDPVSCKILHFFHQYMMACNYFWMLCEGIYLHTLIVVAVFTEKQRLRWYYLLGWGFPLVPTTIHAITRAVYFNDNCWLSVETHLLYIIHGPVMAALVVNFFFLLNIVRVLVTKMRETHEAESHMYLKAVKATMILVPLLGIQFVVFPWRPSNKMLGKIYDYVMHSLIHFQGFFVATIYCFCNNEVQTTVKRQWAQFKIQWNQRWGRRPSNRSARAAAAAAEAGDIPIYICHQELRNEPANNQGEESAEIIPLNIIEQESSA

[4] = molecular target: T3, rat calcitonin (a) receptor (Rattus norvegicus, UniProt P32214); test: Assay (II)b functional cAMP FlashPlate assay, rat calcitonin receptor; type: cell-based; conditions: Table 11; read-out: CTa receptor rat EC50
T3 construct: expressed in transfected cells; host or cells: BHK tk'ts 13
T3 sequence (P32214 25-479 isoform P32214-2 limits assumed): T1 sequence (P32214 25-479 isoform P32214-2 limits assumed)
From the text: as §1, §2, §3, §4, §5

[5] = molecular target: T4, human amylin receptor (amylin 3(a) receptor: human calcitonin receptor + RAMP-3) (Homo sapiens, UniProt O60896+P30988); test: Assay (II)a functional CRE-luciferase assay, human amylin receptor; type: cell-based; conditions: Table 2; BHK amylin 3(a)-receptor/CRE-luc cells
T4 construct: expressed in transfected cells; host or cells: BHK570
T4 sequence (P30988 25-474): T2 sequence (P30988 25-474)
T4 sequence (O60896 24-148 partner): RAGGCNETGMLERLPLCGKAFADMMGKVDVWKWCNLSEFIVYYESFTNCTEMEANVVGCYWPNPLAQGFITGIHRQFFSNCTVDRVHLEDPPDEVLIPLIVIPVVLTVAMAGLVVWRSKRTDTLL

[6] = bistrispropane buffer, pH 6, pH 6.0, read-out: Solubility pH 6.0
[7] = bistrispropane buffer, pH 6.5, pH 6.5, read-out: Solubility pH 6.5
[8] = bistrispropane buffer, pH 7.5, pH 7.5, read-out: Solubility pH 7.5
[9] = bistrispropane buffer, pH 8, pH 8.0, read-out: Solubility pH 8.0
[10] = glycylglycine buffer, pH 3, pH 3.0, read-out: Solubility pH 3.0
[11] = glycylglycine buffer, pH 4, pH 4.0, 18 hours at room temperature, Table 2, read-out: Solubility pH 4.0
[12] = glycylglycine buffer, pH 4, pH 4.0, read-out: Solubility pH 4.0

Row | Structure (SMILES) | solubility at 18 h [1, 6] [µM] | solubility at 18 h [1, 7] [µM] | solubility at 18 h [1, 8] [µM] | solubility at 18 h [1, 9] [µM] | solubility at 18 h [1, 10] [µM] | solubility at 18 h [1, 11] [µM] | solubility at 18 h [1, 12] [µM] | solubility at 18 h ([1]; glycylglycine buffer, pH 5, pH 5.0, read-out: Solubility pH 5.0) [µM] | solubility at 18 h ([1]; pH 7.0, read-out: Solubility pH 7.0) [µM] | EC50 [2] [nM] | EC50 [3] [nM] | EC50 [4] [nM] | EC50 [5] [nM] | solubility at 18 h ([1]; bistrispropane buffer, pH 7, pH 7.0, 18 hours at room temperature, Table 3, read-out: Solubility pH 7.0) [µM] | solubility at 18 h ([1]; bistrispropane buffer, pH 7, pH 7.0, Table 8, read-out: Solubility pH 7.0) [µM] | solubility at 18 h ([1]; bistrispropane buffer, pH 7, pH 7.0, Table 9, read-out: Solubility pH 7.0) [µM] | solubility at 18 h ([1]; bistrispropane buffer, pH 7, pH 7.0, read-out: Solubility pH 7.0) [µM] | solubility at 18 h ([1]; bistrispropane buffer, pH 7.5, pH 7.5, Table 9, read-out: Solubility pH 7.5) [µM] | solubility at 18 h ([1]; pH 5.0, read-out: Solubility pH 5.0) [µM]
1 | CC[C@H](C)[C@H](NC(=O)[C@@H]1CCCN1C(=O)CNC(=O)[C@H](Cc1ccccc1)NC(=O)[C@H](CC(N)=O)NC(=O)[C@H](CC(N)=O)NC(=O)[C@H](CO)NC(=O)[C@H](CO)NC(=O)[C@H](Cc1cnc[nH]1)NC(=O)[C@H](CCCNC(=N)N)NC(=O)[C@H](CC(C)C)NC(=O)[C@H](Cc1ccccc1)NC(=O)[C@H](CCC(=O)O)NC(=O)[C@H](C)NC(=O)[C@H](CC(C)C)NC(=O)[C@H](CCCNC(=N)N)NC(=O)[C@H](CCC(N)=O)NC(=O)[C@@H](NC(=O)[C@H](C)NC(=O)[C@@H]1CSSC[C@H](NC(=O)[C@H](Cc2cnc[nH]2)NC(=O)[C@H](Cc2cnc[nH]2)NC(=O)[C@H](Cc2cnc[nH]2)NC(=O)CC[C@H](NC(=O)CCCCCCCCCCCCCCCCCCC(=O)O)C(=O)O)C(=O)N[C@@H](CC(N)=O)C(=O)N[C@@H]([C@@H](C)O)C(=O)N[C@@H](C)C(=O)N[C@@H]([C@@H](C)O)C(=O)N1)[C@@H](C)O)C(=O)N[C@@H](CC(C)C)C(=O)N1CCC[C@H]1C(=O)N1CCC[C@H]1C(=O)N[C@H](C(=O)N[C@@H](CC(N)=O)C(=O)N[C@H](C(=O)NCC(=O)N[C@@H](CO)C(=O)N[C@@H](CC(N)=O)C(=O)N[C@H](C(=O)N[C@@H](Cc1ccc(O)cc1)C(N)=O)[C@@H](C)O)C(C)C)[C@@H](C)O [Example 12, N-alpha-[(S)-4-Carboxy-4-(19-carboxynonadecanoylamino)butyryl]-His-His-[His1,Glu14,Arg17]-pramlintide] ({C20 diacid-γGlu}-HHHCNTATCATQRLAEFLRHSSNNFGPILPPTNVGSNTY-NH2; disulfide 4-9) | > 200 | 45 (≈ 214 µg/mL) | 26 (≈ 124 µg/mL) | 69 (≈ 328 µg/mL) | > 200 | > 200 | > 200 | > 200 | 9 (≈ 42.8 µg/mL) | 0.082 | 0.409 | 6.76 | 0.0775 | – | – | – | – | – | –
2 | CC[C@H](C)[C@H](NC(=O)[C@@H]1CCCN1C(=O)CNC(=O)[C@H](Cc1ccccc1)NC(=O)[C@H](CO)NC(=O)[C@H](CO)NC(=O)[C@H](CO)NC(=O)[C@H](CO)NC(=O)[C@H](CCCNC(=N)N)NC(=O)[C@H](Cc1cnc[nH]1)NC(=O)[C@H](CC(C)C)NC(=O)[C@H](Cc1ccccc1)NC(=O)[C@H](CCC(=O)O)NC(=O)[C@H](C)NC(=O)[C@H](CC(C)C)NC(=O)[C@H](CCCNC(=N)N)NC(=O)[C@H](CCC(N)=O)NC(=O)[C@@H](NC(=O)[C@H](C)NC(=O)[C@@H]1CSSC[C@H](NC(=O)[C@H](Cc2cnc[nH]2)NC(=O)CC[C@H](NC(=O)CCCCCCCCCCCCCCCCCCC(=O)O)C(=O)O)C(=O)N[C@@H](CC(N)=O)C(=O)N[C@@H]([C@@H](C)O)C(=O)N[C@@H](C)C(=O)N[C@@H]([C@@H](C)O)C(=O)N1)[C@@H](C)O)C(=O)N[C@@H](CC(C)C)C(=O)N1CCC[C@H]1C(=O)N1CCC[C@H]1C(=O)N[C@H](C(=O)N[C@@H](CC(=O)O)C(=O)N[C@H](C(=O)NCC(=O)N[C@@H](CO)C(=O)N[C@@H](CC(=O)O)C(=O)N[C@H](C(=O)N[C@@H](Cc1ccc(O)cc1)C(N)=O)[C@@H](C)O)C(C)C)[C@@H](C)O [Example 9, N-alpha-[(S)-4-Carboxy-4-(19-carboxynonadecanoylamino)butyryl]-[His1,Glu14,His17,Arg18,Ser21,Ser22,Asp31,Asp35]-pramlintide] ({C20 diacid-γGlu}-HCNTATCATQRLAEFLHRSSSSFGPILPPTDVGSDTY-NH2; disulfide 2-7) | > 200 | > 200 | > 200 | > 200 | > 200 | 116 (≈ 514 µg/mL) | 116 (≈ 514 µg/mL) | – | – | 0.33 | 0.208 | 1.73 | 0.212 | > 200 | > 200 | > 200 | > 200 | > 200 | 5 (≈ 22.2 µg/mL)
